The nature of series [1]: Relaxivity (r1, r2) in saline. Format: physicochemical. The settings on record: NaCl 0.15M in water - pH 7.3 - 20 MHz - 39° C. An excerpt: (§1) Relaxivity values of the contrast agent of the present invention have been tested either in saline or in human serum obtained by Seronorm™ Human, freeze-dried human serum produced by Nycomed Pharma AS, Oslo, Norway. Serum obtained from said Seronorm™ is substantially equivalent to the fresh one, so its use in the relaxivity determination grants a good picture of the “in vivo” behaviour and, further, an excellent reproducibility of this test.

Series [2] in a line: Relaxivity (r1, r2) in human serum (Seronorm™ Human). Format: physicochemical. The settings on record: Between 0 and 1 mM (Seronorm™ Human) - 20 MHz - 39° C.
Description: as §1
The compounds object of the present invention are characterised by very high r1 and r2 relaxivity values. When measured in Seronorm™ Human at 20 MHz, at a temperature of 39° C., and at a concentration comprised from 0 to 1 mM, the compounds of the present invention have r1 relaxivity equal to or, preferably, higher than 15 s^−1mm^−1.

For the compound `CCC(C)C(C(=O)[O-])N(CCN(CCN(CC(=O)[O-])C(C(=O)[O-])C(C)CC)[C@H](C(=O)[O-])[C@@H](C)CC)CC(=O)[O-].[Gd+3].[Na+].[Na+]` (relative stereo) [Compound 2, [[[1S-[1R*(1R*,2R*),2R*]]-N,N-Bis[2-[(carboxymethyl)(1-carboxy-2-methylbutyl)amino]ethyl]-L-isoleucinate-(5-)]gadolinate(2-)]disodium salt.], the “Relaxivity Saline r1” value in series [1] is 5.07 mM⁻¹ s⁻¹. For the same compound, the “Relaxivity Serum r1” value in series [2] was 11.9 mM⁻¹ s⁻¹.

Source of the values: patent US6403055B1, “Diagnostic imaging contrast agent with improved in serum relaxivity” (Dibra S.p.A., priority 1996, dated 2002).
